In this test the test system is HCV 1b genotype replicon. In words: HCV genotype-1b replicon assay (qRT-PCR or luciferase). It counts as cell-based. The conditions noted are these: Hepatitis C virus, read-out: Genotype-1b replicon EC50 Range. The source says:
HCV replicon cell lines (kindly provided by R. Bartenschlager) isolated from colonies as described by Lohman et. al. (Lohman et al. (1999) Science 285: 110-113, expressly incorporated by reference in its entirety) and used for all experiments. The HCV replicon has the nucleic acid sequence set forth in EMBL Accession No.: AJ242651, the coding sequence of which is from nucleotides 1801 to 8406.
The coding sequence of the published HCV replicon was synthesized and subsequently assembled in a modified plasmid pBR322 (Promega, Madison, Wis.) using standard molecular biology techniques. […]
EC50 values of single agent compounds and combinations were determined by HCV RNA detection using quantitative RT-PCR, according to the manufacturer's instructions, with a TAQMAN® One-Step RT-PCR Master Mix Reagents Kit (Cat # AB 4309169, Applied Biosystems) on an ABI Model 7500 thermocycler. The TaqMan primers used for detecting and quantifying HCV RNA were obtained from Integrated DNA Technologies. HCV RNA was normalized to GAPDH RNA levels in drug-treated cells, which was detected and quantified using the Human GAPDH Endogenous Control Mix (Applied Biosystems, AB 4310884E). […] Chemical agent cytotoxicity was evaluated using an MTS assay according to the manufacturer's directions (Promega). […]
A general note: In antiviral work, replicon cells carry a viral genome segment that copies itself.

SMILES strings stand for the structures.

Turning to `COC(=O)N[C@H](C(=O)N1CCC(C(=O)Nc2ccc(-c3ccc(NC(=O)C4CCN(C(=O)[C@@H](NC(=O)OC)C(C)C)C4)cc3)cc2)C1)C(C)C` (stereo partly shown) [Example 295], the EC50 (usually the concentration giving half of the maximal effect) was over 0.01 µM.

The values are drawn from US8703938B2, “Hepatitis C virus inhibitors” (Enanta Pharmaceuticals, Inc., priority 2009, dated 2014).
